Results published in US11584710B2, “Compounds for treating infections” (HORITZONTS TECNOLOGICS HUNGARY KORLÁTOLT FELELOSSÉGU …, priority 2017, dated 2023).

Key:
A. fumigatus [1] = system: A. fumigatus; design: key: I = intermediate activity; S = susceptibility; R = Resistance; conditions: A. fumigatus clinical strain; cited from earlier work
C. lusitaniae [2] = system: C. lusitaniae; design: key: I = intermediate activity; S = susceptibility; R = Resistance; conditions: C. lusitaniae clinical strain; cited from earlier work
A. flavus [3] = system: A. flavus; design: key: I = intermediate activity; S = susceptibility; R = Resistance; conditions: A. flavus clinical strain; cited from earlier work
C. lusitaniae [4] = test: Antifungal disk diffusion susceptibility test (CLSI M44); assay type: cell-based; conditions: Clavispora lusitaniae, read-out: Activity (mm)
Experimental: (§1) Filamentous fungi and yeasts strains, from clinical origin, were supplied by Microbiology Service from The Princess Hospital, Madrid. They are detailed in Table IX.
(§2) Filamentous fungi and yeast cells suspensions in distilled water was prepared from a culture of 24-48 h, depending on species, in Sabouraud agar. Each suspension was adjusted to a fixed size inoculum of 1-5×10^8 CFU/ml with a spectrophotometer (Ferraro, MJ National Committee for Clinical Laboratory Standards. 2000).
(§3) Antifungal susceptibility tests were developed following the standardized methodology detailed in document CLSI: M44-4: Method for Antifungal Disk diffusion susceptibility testing of yeasts consisting of disk diffusion on agar Muller-Hinton (supplemented with 2% glucose).

C. albicans [5] = test: as above; assay type: cell-based; conditions: Candida albicans, read-out: Activity (mm)
Experimental: as §1, §2, §3

C. tropicalis [6] = test: as above; assay type: cell-based; conditions: Candida tropicalis, read-out: Activity (mm)
Experimental: as §1, §2, §3

A. fumigatus [7] = test: as above; assay type: cell-based; conditions: Aspergillus fumigatus, read-out: Activity (mm)
Experimental: as §1, §2, §3

C. parapsilosis [8] = test: as above; assay type: cell-based; conditions: Lodderomyces parapsilosis, read-out: Activity (mm)
Experimental: as §1, §2, §3

A. terreus [9] = test: as above; assay type: cell-based; conditions: Aspergillus terreus, read-out: Activity (mm)
Experimental: as §1, §2, §3

C. guillermondii [10] = test: as above; assay type: cell-based; conditions: read-out: Activity (mm)
Experimental: as §1, §2, §3

A. flavus [11] = test: as above; assay type: cell-based; conditions: Aspergillus flavus, read-out: Activity (mm)
Experimental: as §1, §2, §3

A. niger [12] = test: as above; assay type: cell-based; conditions: Aspergillus niger, read-out: Activity (mm)
Experimental: as §1, §2, §3

S. cerevisiae [13] = test: as above; assay type: cell-based; conditions: Saccharomyces cerevisiae, read-out: Activity (mm)
Experimental: as §1, §2, §3

C. parapsilosis [14] = system: C. parapsilosis; design: key: I = intermediate activity; S = susceptibility; R = Resistance; conditions: C. parapsilosis clinical strain; cited from earlier work
C. guillermondii [15] = system: C. guillermondii; design: key: I = intermediate activity; S = susceptibility; R = Resistance; conditions: C. guillermondii clinical strain; cited from earlier work
C. Krusei = system: C. Krusei; design: key: I = intermediate activity; S = susceptibility; R = Resistance; conditions: C. Krusei clinical strain; cited from earlier work
C. albicans [16] = system: C. albicans; design: key: I = intermediate activity; S = susceptibility; R = Resistance; conditions: C. albicans clinical strain; cited from earlier work
S. cerevisiae [17] = system: S. cerevisiae; design: key: I = intermediate activity; S = susceptibility; R = Resistance; conditions: S. cerevisiae clinical strain; cited from earlier work
A. niger [18] = system: A. niger; design: key: I = intermediate activity; S = susceptibility; R = Resistance; conditions: A. niger clinical strain; cited from earlier work
C. tropicalis [19] = system: C. tropicalis; design: key: I = intermediate activity; S = susceptibility; R = Resistance; conditions: C. tropicalis clinical strain; cited from earlier work
C. glabrata = system: C. glabrata; design: key: I = intermediate activity; S = susceptibility; R = Resistance; conditions: C. glabrata clinical strain; cited from earlier work
A. terreus [20] = system: A. terreus; design: key: I = intermediate activity; S = susceptibility; R = Resistance; conditions: A. terreus clinical strain; cited from earlier work
C. difficile = test: Kirby-Bauer disk diffusion susceptibility test; assay type: cell-based; conditions: for Antibiotic activity (Table VIII, zone of inhibition): 300 μg
Experimental: (§4) Bacterial strains, from clinical origin, were supplied by the National Center for Microbiology, Institute of Health Carlos III (Majadahonda, Madrid). They are detailed in Table 1.
(§5) Bacterial cells suspension in sterile saline was prepared from a culture of 24-72 h, depending on bacterial species, in Mueller-Hinton Agar with 5% sheep blood. Each suspension was adjusted to a fixed size inoculum of 1-5×10^8 CFU/ml with a spectrophotometer (Ferraro, MJ National Committee for Clinical Laboratory Standards. 2000).
(§6) Kirby-Bauer disk diffusion susceptibility test protocol was utilized to determine the sensitivity or resistance of pathogenic bacteria against the compounds and others antibiotics. The absence of growth around the disks is an indirect measure of the ability of this compound to inhibit an organism (Kirby, W., et al., Antibiotics Annu. 1956-1957:892). After 18 to 72 hours of incubation at 37° C., with or without CO2, under aerobic or anaerobic conditions, depending on the bacterial species, halo of growth inhibition were obtained and evaluated.
(§7) Interpretation of susceptibility and resistance was based on the presence or absence of a zone of inhibition surrounding the disk. Kirby-Bauer disk diffusion susceptibility test is a common method which uses antibiotic-impregnated wafers to test whether bacteria are affected by antibiotics. The size of the zone of inhibition depends on how effective the antibiotic is at stopping the growth of the bacterium. A stronger antibiotic will create a larger zone, because a lower concentration of the antibiotic is enough to stop growth.
(§8) All compounds were tested at 300 μg/disc.

T. pulmonis = test: Kirby-Bauer disk diffusion susceptibility test; assay type: cell-based; conditions: for Antibiotic activity (Table VIII, zone of inhibition): 300 μg
Experimental: as §4, §5, §6, §7, §8

N. cyriacigeorgica = test: Kirby-Bauer disk diffusion susceptibility test; assay type: cell-based; conditions: for Antibiotic activity (Table VIII, zone of inhibition): 300 μg
Experimental: as §4, §5, §6, §7, §8

S. pyogenes = test: Kirby-Bauer disk diffusion susceptibility test; assay type: cell-based; conditions: 300 μg/disc
Experimental: as §4, §5, §6, §7, §8

N. carnea = test: Kirby-Bauer disk diffusion susceptibility test; assay type: cell-based; conditions: for Antibiotic activity (Table VIII, zone of inhibition): 300 μg
Experimental: as §4, §5, §6, §7, §8

K. pneumoniae = test: Kirby-Bauer disk diffusion susceptibility test; assay type: cell-based; conditions: for Antibiotic activity (Table VIII, zone of inhibition): 300 μg
Experimental: as §4, §5, §6, §7, §8

S. pneumoniae = test: Kirby-Bauer disk diffusion susceptibility test; assay type: cell-based; conditions: for Antibiotic activity (Table VIII, zone of inhibition): 300 μg
Experimental: as §4, §5, §6, §7, §8

E. faecalis = test: Kirby-Bauer disk diffusion susceptibility test; assay type: cell-based; conditions: E. foecalis; 300 μg
Experimental: as §4, §5, §6, §7, §8

E. faecium = test: Kirby-Bauer disk diffusion susceptibility test; assay type: cell-based; conditions: 300 μg
Experimental: as §4, §5, §6, §7, §8

A. baumannii = test: Kirby-Bauer disk diffusion susceptibility test; assay type: cell-based; conditions: 300 μg
Experimental: as §4, §5, §6, §7, §8

P. aeruginosa = test: Kirby-Bauer disk diffusion susceptibility test; assay type: cell-based; conditions: 300 μg
Experimental: as §4, §5, §6, §7, §8

S. epidermidis = test: Kirby-Bauer disk diffusion susceptibility test; assay type: cell-based; conditions: 300 μg
Experimental: as §4, §5, §6, §7, §8

E. cloacae = test: Kirby-Bauer disk diffusion susceptibility test; assay type: cell-based; conditions: 300 μg
Experimental: as §4, §5, §6, §7, §8

M. abscessus = test: Kirby-Bauer disk diffusion susceptibility test; assay type: cell-based; conditions: 300 μg
Experimental: as §4, §5, §6, §7, §8

E. coli = test: Kirby-Bauer disk diffusion susceptibility test; assay type: cell-based; conditions: 300 μg
Experimental: as §4, §5, §6, §7, §8

In the case of `CC(=O)N1CCN(c2ccc(OCC3COC(Cn4ccnc4)(c4ccc(Cl)cc4Cl)O3)cc2)CC1` (stereo not drawn) [Ket, ketoconazole], the “Susceptibility of the strain” value (A. fumigatus [1]) is given as “S”, the “Susceptibility of the strain” value (C. lusitaniae [2]) is given as “S” and the “Susceptibility of the strain” value (A. flavus [3]) is given as “S”. It also gave a zone of inhibition at 50 µg/disc (C. lusitaniae [4]) of 41 mm, a zone of inhibition at 50 µg/disc (C. albicans [5]) of 22 mm and a zone of inhibition at 50 µg/disc (C. tropicalis [6]) of 25 mm. For the same compound, the zone of inhibition at 50 µg/disc (A. fumigatus [7]) was 22 mm, the zone of inhibition at 50 µg/disc (C. parapsilosis [8]) was 42 mm and the zone of inhibition at 50 µg/disc (A. terreus [9]) was 26 mm. The zone of inhibition at 50 µg/disc (C. guillermondii [10]) was 44 mm, the zone of inhibition at 50 µg/disc (A. flavus [11]) was 32 mm and the zone of inhibition at 50 µg/disc (A. niger [12]) was 25 mm. The zone of inhibition at 50 µg/disc (S. cerevisiae [13]) was 30 mm, the “Susceptibility of the strain” value (C. parapsilosis [14]) was “S” and the “Susceptibility of the strain” value (C. guillermondii [15]) was “R”. The “Susceptibility of the strain” value (C. Krusei) was “S”, the “Susceptibility of the strain” value (C. albicans [16]) was “S” and the “Susceptibility of the strain” value (S. cerevisiae [17]) was “S”. For the same compound, the “Susceptibility of the strain” value (A. niger [18]) was “S”, the “Susceptibility of the strain” value (C. tropicalis [19]) was “S” and the “Susceptibility of the strain” value (C. glabrata) was “S”. The “Susceptibility of the strain” value (A. terreus [20]) was “S”.
In the case of `NNC(=O)C(=O)NOc1ccccc1` [MSG-196], the “Activity detected (mm)” value (C. difficile; 300 μg/disc) is reported as 18 mm, the “Activity detected (mm)” value (T. pulmonis; 300 μg/disc) is reported as 22 mm and the “Activity detected (mm)” value (N. cyriacigeorgica; 300 μg/disc) is reported as 34 mm. The “Activity detected (mm)” value (S. pyogenes) was 20 mm, the “Activity detected (mm)” value (N. carnea; 300 μg/disc) was 30 mm and the “Activity detected (mm)” value (K. pneumoniae; 300 μg/disc) was 13 mm. For the same compound, the “Activity detected (mm)” value (S. pneumoniae; 300 μg/disc) was 20 mm.
Work on `NNC(=O)C(=O)NNc1ccc(OC(=O)c2ccccc2)cc1` [MSG-231] yielded an Antibiotic activity (Table VIII, zone of inhibition) (C. difficile) of 24 mm, an Antibiotic activity (Table VIII, zone of inhibition) (T. pulmonis) of 27 mm and an Antibiotic activity (Table VIII, zone of inhibition) (E. faecalis) of 29 mm. It also gave an Antibiotic activity (Table VIII, zone of inhibition) (N. cyriacigeorgica) of 33 mm, an Antibiotic activity (Table VIII, zone of inhibition) (E. faecium) of 27 mm and an Antibiotic activity (Table VIII, zone of inhibition) (N. carnea) of 38 mm. The Antibiotic activity (Table VIII, zone of inhibition) (A. baumannii) was 20 mm, the Antibiotic activity (Table VIII, zone of inhibition) (P. aeruginosa) was 11 mm and the Antibiotic activity (Table VIII, zone of inhibition) (S. epidermidis) was 33 mm. The Antibiotic activity (Table VIII, zone of inhibition) (E. cloacae) was 10 mm, the Antibiotic activity (Table VIII, zone of inhibition) (M. abscessus) was 27 mm and the Antibiotic activity (Table VIII, zone of inhibition) (K. pneumoniae) was 10 mm. For the same compound, the Antibiotic activity (Table VIII, zone of inhibition) (S. pneumoniae) was 24 mm and the Antibiotic activity (Table VIII, zone of inhibition) (E. coli) was 17 mm.
In the case of `COc1ccccc1NNC(=O)C(=O)NN` [MSG-235], the Antibiotic activity (Table VIII, zone of inhibition) (C. difficile) is reported as 20 mm, the Antibiotic activity (Table VIII, zone of inhibition) (T. pulmonis) is reported as 24 mm and the Antibiotic activity (Table VIII, zone of inhibition) (E. faecalis) is reported as 25 mm. The Antibiotic activity (Table VIII, zone of inhibition) (N. cyriacigeorgica) was 29 mm, the Antibiotic activity (Table VIII, zone of inhibition) (E. faecium) was 22 mm and the Antibiotic activity (Table VIII, zone of inhibition) (N. carnea) was 34 mm. It also gave an Antibiotic activity (Table VIII, zone of inhibition) (A. baumannii) of 15 mm, an Antibiotic activity (Table VIII, zone of inhibition) (P. aeruginosa) of 11 mm and an Antibiotic activity (Table VIII, zone of inhibition) (S. epidermidis) of 27 mm. It also gave an Antibiotic activity (Table VIII, zone of inhibition) (E. cloacae) of 11 mm, an Antibiotic activity (Table VIII, zone of inhibition) (M. abscessus) of 23 mm and an Antibiotic activity (Table VIII, zone of inhibition) (K. pneumoniae) of 12 mm. It also gave an Antibiotic activity (Table VIII, zone of inhibition) (S. pneumoniae) of 21 mm and an Antibiotic activity (Table VIII, zone of inhibition) (E. coli) of 14 mm.
